Square brackets hold non-standard residues; d marks the D form. Peptide text beside a SMILES is read from it. pY = N[C@@H](Cc1ccc(OP(=O)(O)O)cc1)C(=O)O; Ahp = NCCCCCCC(=O)O

Consider 42 compounds from ChEMBL document CHEMBL1131573, “Potent dipeptide inhibitors of the pp60c-src SH2 domain” (J Med Chem, 1998).

The nature of the experiment: Binding affinity against c-Src tyrosine kinase SH2 domain expressed as ratio of IC50 of test compound over IC50 of AcYEEIE.

For the compound `CCCCCN(CCCCC)C(=O)[C@H](CCC(=O)O)NC(=O)[C@H](Cc1ccc(OP(=O)(O)O)cc1)NC(=O)Nc1ccc(OC)cc1`, the Ratio worked out at 13.5.

With `CCCCCN(CCC(=O)OCC)C(=O)[C@H](CCC(=O)O)NC(=O)[C@H](Cc1ccc(OP(=O)(O)O)cc1)NC(C)=O`, the Ratio was 26.

Consider `CCCCCN(CCCCC)C(=O)[C@H](CCC(=O)O)NC(=O)[C@H](Cc1ccc(OP(=O)(O)O)cc1)NC(=O)CCCc1ccccc1`, for which the Ratio worked out at 27.2.

Regarding `CC(=O)N[C@@H](Cc1ccc(OP(=O)(O)O)cc1)C(=O)N[C@@H](CCC(=O)O)C(=O)N(C)CCCc1c[nH]c2ccccc12`, the Ratio was 11.6.

`CCCCCN(CCCCC)C(=O)[C@H](CCS(C)(=O)=O)NC(=O)[C@H](Cc1ccc(OP(=O)(O)O)cc1)NC(C)=O`: the Ratio stood at 75.3.

On to `CC(=O)N[C@@H](Cc1ccc(OP(=O)(O)O)cc1)C(=O)N[C@@H](CCC(=O)O)C(=O)N(C)CCCc1c(C(N)=O)[nH]c2ccccc12`, for which the Ratio was found to be 9.3.

Regarding `CCCCCN(C)C(=O)[C@H](CCC(=O)O)NC(=O)[C@H](Cc1ccc(OP(=O)(O)O)cc1)NC(C)=O`, the Ratio was 12.

Consider `CCCCCN(CCCCC)C(=O)[C@H](CCSC)NC(=O)[C@H](Cc1ccc(OP(=O)(O)O)cc1)NC(C)=O`, for which the Ratio is 16.5.

Turning to `CCCCCN(CCCCC)C(=O)[C@H](CCC(=O)O)NC(=O)[C@H](Cc1ccc(OP(=O)(O)O)cc1)NC(=O)CCc1cccnc1`, the Ratio stood at 17.7.

Take `CCCCCN(CCCCC)C(=O)[C@H](CCC(=O)O)NC(=O)[C@H](Cc1ccc(OP(=O)(O)O)cc1)NC(=O)c1ccc([N+](=O)[O-])cc1`: the Ratio worked out at 5.7.

Regarding `CC(=O)N[C@@H](Cc1ccc(OP(=O)(O)O)cc1)C(=O)N[C@@H](CCC(=O)O)C(=O)N(C)CCCCCCCCO`, the Ratio is 2.2.

Take `CC(=O)N[C@@H](Cc1ccc(OP(=O)(O)O)cc1)C(=O)N[C@@H](CCC(=O)O)C(=O)O` (Ac-[pY]-Glu-OH): the Ratio was 606.

For `CCCCCN(CCCCC)C(=O)[C@H](CCC(=O)O)NC(=O)[C@H](Cc1ccc(OP(=O)(O)O)cc1)NC(=O)Nc1ccc([N+](=O)[O-])cc1`, the Ratio was found to be 184.

Regarding `CCCCCN(CCO)C(=O)[C@H](CCC(=O)O)NC(=O)[C@H](Cc1ccc(OP(=O)(O)O)cc1)NC(C)=O`, the Ratio worked out at 16.7.

As for `CCCCCN(CCCCC)C(=O)[C@H](CCC(=O)O)NC(=O)[C@H](Cc1ccc(OP(=O)(O)O)cc1)NC(=O)CCc1ccc(O)cc1`, the Ratio was found to be 26.7.

Turning to `CCCCCN(CCCCC)C(=O)[C@H](CCC(=O)O)NC(=O)[C@H](Cc1ccc(OP(=O)(O)O)cc1)NC(=O)C(F)(F)F`, the Ratio was 57.2.

Take `CCCCCN(CCCCC)C(=O)[C@H](CCC(=O)O)NC(=O)[C@H](Cc1ccc(OP(=O)(O)O)cc1)NC(=O)COCc1ccccc1`: the Ratio came to 32.7.

In the case of `CCCCCNC(=O)[C@H](CCC(=O)O)NC(=O)[C@H](Cc1ccc(OP(=O)(O)O)cc1)NC(C)=O`, the Ratio came to 16.6.

As to `CC(=O)N[C@@H](Cc1ccc(OP(=O)(O)O)cc1)C(=O)N[C@@H](CCC(=O)O)C(N)=O` (Ac-[pY]-Glu-NH2), the Ratio is 200.

With `CCCCCN(CCCCC)C(=O)[C@H](CCC(=O)O)NC(=O)[C@H](Cc1ccc(OP(=O)(O)O)cc1)NC(=O)c1ccc(OC)cc1`, the Ratio came to 7.2.

For `CC(=O)N[C@@H](Cc1ccc(OP(=O)(O)O)cc1)C(=O)N[C@@H](CCC(=O)O)C(=O)N(C)CCc1c[nH]c2ccccc12`, the Ratio was found to be 31.8.

Regarding `CCCCCN(CCCCC)C(=O)[C@H](CCC(=O)O)NC(=O)[C@H](Cc1ccc(OP(=O)(O)O)cc1)NC(=O)Cc1ccc(CN)cc1`, the Ratio is 92.1.

Turning to `CCCCCN(CCCCC)C(=O)[C@H](CCC(=O)O)NC(=O)[C@H](Cc1ccc(OP(=O)(O)O)cc1)NC(=O)c1ccc(Cl)cc1`, the Ratio was 39.

For `COc1ccc2[nH]cc(CCNC(=O)[C@H](CCC(=O)O)NC(=O)[C@H](Cc3ccc(OP(=O)(O)O)cc3)NC(C)=O)c2c1`, the Ratio was 29.7.

On to `CCCCCCN(CCCCCC)C(=O)[C@H](CCC(=O)O)NC(=O)[C@H](Cc1ccc(OP(=O)(O)O)cc1)NC(C)=O`, for which the Ratio was determined as 24.

Consider `CC(=O)N[C@@H](Cc1ccc(OP(=O)(O)O)cc1)C(=O)N[C@@H](CCC(=O)O)C(=O)NCCCCCCC(N)=O` (Ac-[pY]-Glu-[Ahp]-NH2), for which the Ratio stood at 115.

Turning to `CCCCCN(CCCCC)C(=O)[C@H](CCC(=O)O)NC(=O)[C@H](Cc1ccc(OP(=O)(O)O)cc1)NC(=O)Cc1ccccc1`, the Ratio stood at 16.5.

As for `CCCCCN(CCCCC)C(=O)[C@H](CCC(=O)O)NC(=O)[C@H](Cc1ccc(OP(=O)(O)O)cc1)NC(=O)c1ccccc1`, the Ratio was 15.3.

Regarding `CCCCCN(CCCCC)C(=O)[C@H](CCC(=O)O)NC(=O)[C@H](Cc1ccc(OP(=O)(O)O)cc1)NC(=O)CCc1ccccc1`, the Ratio turned out to be 10.8.

On to `CC(=O)N[C@@H](Cc1ccc(OP(=O)(O)O)cc1)C(=O)N[C@@H](CCC(=O)O)C(=O)NCCCCCCC(=O)O` (Ac-[pY]-Glu-[Ahp]-OH), for which the Ratio turned out to be 36.7.

As for `CCCCCN(CCCCC)C(=O)[C@H](CCC(=O)O)NC(=O)[C@H](Cc1ccc(OP(=O)(O)O)cc1)NC(=O)Nc1ccc(N)cc1`, the Ratio was 26.9.

Take `CC(=O)N[C@@H](Cc1ccc(OP(=O)(O)O)cc1)C(=O)N[C@@H](CCC(=O)O)C(=O)N(C)CCCCCCO`: the Ratio came out at 6.4.

`CCCCCN(CCC(=O)O)C(=O)[C@H](CCC(=O)O)NC(=O)[C@H](Cc1ccc(OP(=O)(O)O)cc1)NC(C)=O`: the Ratio worked out at 48.

For the compound `CCCCCN(CCCCC)C(=O)[C@H](CCC(=O)O)NC(=O)[C@H](Cc1ccc(OP(=O)(O)O)cc1)NC(=O)c1ccc(C(F)(F)F)cc1`, the Ratio is 25.4.

Take `CCCCCN(CCCCC)C(=O)[C@H](CSC)NC(=O)[C@H](Cc1ccc(OP(=O)(O)O)cc1)NC(C)=O`: the Ratio amounted to 33.1.

Turning to `CCCCCCCN(CCCCCCC)C(=O)[C@H](CCC(=O)O)NC(=O)[C@H](Cc1ccc(OP(=O)(O)O)cc1)NC(C)=O`, the Ratio turned out to be 327.

In the case of `CCCCCN(CCCCC)C(=O)[C@H](CSCc1ccccc1)NC(=O)[C@H](Cc1ccc(OP(=O)(O)O)cc1)NC(C)=O`, the Ratio was 155.

Regarding `CCCCCN(CCCCC)C(=O)[C@H](CCC(=O)O)NC(=O)[C@H](Cc1ccc(OP(=O)(O)O)cc1)NC(=O)CSc1ccccc1`, the Ratio was 17.7.

As for `CC(=O)N[C@@H](Cc1ccc(OP(=O)(O)O)cc1)C(=O)N[C@@H](CCC(=O)O)C(=O)NCCc1c[nH]c2ccc(O)cc12`, the Ratio turned out to be 31.5.

`CCCCCN(CCCCC)C(=O)[C@H](CCC(=O)O)NC(=O)[C@H](Cc1ccc(OP(=O)(O)O)cc1)NC(=O)CSCc1ccccc1`: the Ratio was determined as 18.9.

For the compound `CC(=O)N[C@@H](Cc1ccc(OP(=O)(O)O)cc1)C(=O)N[C@@H](CCC(=O)O)C(=O)N(C)CCCCCCCO`, the Ratio came out at 3.6.

As to `CCCCCN(CCCCC)C(=O)[C@H](CCC(=O)O)NC(=O)[C@H](Cc1ccc(OP(=O)(O)O)cc1)NC(=O)OCc1ccccc1`, the Ratio is 79.7.
